Laboratory results taken from patent US20250130239A1, “PROTEIN DEGRADER” (University of Dundee, priority 2021, published 2025).
Where two headings read alike, the source gives them in different places.

Columns and labels:
BromoTag-Brd2 = biological target: T1, BromoTag-Brd2 (Homo sapiens, UniProt O60885+P40337, L387A); test: Dose-response degradation assay (western blot, 6 h) in heterozygous BromoTag-Brd2 HEK293 cells; format: cell-based; settings: for pDC50: second-generation B&H-PROTACs (diastereomeric mixtures), mean (±S.E) of three experiments; for hook effect: at the higher concentrations used, 1-10 μM
T1 construct: comprising residues 368-440 of human Brd4; Brd2 (endogenous protein, fusion partner in the same polypeptide); eGFP-P2A (upstream marker in the knock-in cassette) (N, cleaved yes); expressed in transfected cells; host or cells: HEK293, heterozygous CRISPR knock-in at the endogenous BRD2 locus
Method: Dose-response Degradation Assays. All dose-response degradation assays were performed on the genotype verified heterozygous BromoTag-Brd2 HEK293 cell line. Heterozygous BromoTag-Brd2 HEK293 cells were plated at a density of 5×10^5 cells per well of a six healthy plate a day before initiation of the titration experiment. PROTAC compounds were dissolved in DMSO at a concentration of 10 mM, from these stock concentrations, PROTAC compounds were diluted to appropriate concentrations using DMSO in the range of 10 μM-1 nM. […] Control compounds such as MZ1, cis-MZ1 were similarly dissolved in DMSO to the appropriate concentration. […] Cells were washed twice with PBS before being harvested.
Western Blotting. […] The membranes were blocked for 1 h prior to incubation with the primary antibodies using 5% Milk TBST. […] Following overnight incubation with the primary antibodies at 4° C., the membranes were incubated with secondary antibodies (Anti-rabbit, Abcam AB216773, 1:5000 or anti-mouse, Abcam AB216774, 1:5000) and hFAB™ Rhodamine Anti-Tubulin Antibody (Biorad, 12004165, 1:10000) for one h and then imaged with a Bio-Rad imager (LI-COR Biosciences). All western blots were analysed for band intensities using Image Lab from Bio-Rad (LI-COR, Biosciences). The data extracted from these blots were then plotted and analysed using Prism (v. 8.2.0, GraphPad).

[1] = tested on: untagged Brd2 and endogenous Brd3 and Brd4; test: Off-target degradation of endogenous BET proteins (western blot) in BromoTag-Brd2 HEK293 cells; format: cell-based, human; settings: 1 nM to 10 μM; 6 h
Method: Dose-response Degradation Assays. All dose-response degradation assays were performed on the genotype verified heterozygous BromoTag-Brd2 HEK293 cell line. Heterozygous BromoTag-Brd2 HEK293 cells were plated at a density of 5×10^5 cells per well of a six healthy plate a day before initiation of the titration experiment. PROTAC compounds were dissolved in DMSO at a concentration of 10 mM, from these stock concentrations, PROTAC compounds were diluted to appropriate concentrations using DMSO in the range of 10 μM-1 nM. The compounds were then added to a 2 mL of DMEM (Invitrogen, Carlsebad, CA, USA) supplemented with 10% (v/v) Fetal bovine serum (FBS) (Thermo Fisher, Waltham, MA, USA) and 1% (v/v) penicillin/streptomycin (pen/strep) (#15140122, Thermo Fisher, Waltham, MA, USA) and added to the cells at initiation of the experiment. Control compounds such as MZ1, cis-MZ1 were similarly dissolved in DMSO to the appropriate concentration. All titration experiment were performed for a total of 6 hours prior to being harvested and were kept at 37° C., 5% CO2, and 95% humidity once treatment was applied until right before harvesting. Cells were washed twice with PBS before being harvested.
Western Blotting. […] Total protein quantity was determined using the BCA protein assay (#23225, Pierce, Rockford, Illinois). Protein concentration was determined using the BCA assay (ThermoFisher Scientific, 23225). […] All western blots were analysed for band intensities using Image Lab from Bio-Rad (LI-COR, Biosciences). The data extracted from these blots were then plotted and analysed using Prism (v. 8.2.0, GraphPad).
Development of a Knock-in Cell Line with BromoTag fused to endogenous Brd2 using CRISPR. […] To this end, the endogenous BET family protein Brd2 was chosen as a model target, due to the availability of well-established antibody for Brd2 detection, and expression of a single protein isoform as well detected band in the western blot (Filippakopoulos, P.; Knapp, S., Nat Rev Drug Discov. 2014, 13 (5), 337-356). […]

[2] = Ab: Brd2, second-generation B&H-PROTACs, 6 h
[3] = Ab: Brd4^BD2 L387A, second-generation B&H-PROTACs, 6 h
[4] = 6 h, range over the two antibodies

T1 sequence (P40337 whole entry, other chains not shown, the tested form may be a part): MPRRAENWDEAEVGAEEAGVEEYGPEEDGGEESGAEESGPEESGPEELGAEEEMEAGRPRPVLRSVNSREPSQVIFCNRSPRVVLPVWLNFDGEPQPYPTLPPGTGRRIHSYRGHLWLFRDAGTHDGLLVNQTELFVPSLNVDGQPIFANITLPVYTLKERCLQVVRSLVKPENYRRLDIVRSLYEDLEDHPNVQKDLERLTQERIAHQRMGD

Question: `CC[C@@H](C(=O)NCCOCCCOCC(=O)N[C@H](C(=O)N1C[C@H](O)C[C@H]1C(=O)N[C@@H](C)c1ccc(-c2scnc2C)cc1)C(C)(C)C)[C@@H]1N=C(c2ccc(Cl)cc2)c2c(sc(C)c2C)-n2c(C)nnc21` (relative stereo) [ET-ARV-771 (21), (2S,4R)-1-((2S,15R*)-(tert-butyl)-15-((S*)-4-(4-chlorophenyl)-2,3,9-trimethyl-6H-thieno[3,2-f][1,2,4]triazolo[4,3-a][1,4]diazepin-6-yl)-4,14-dioxo-6,10-dioxa-3,13-diazaheptadecanoyl)-4-hydroxy-N—((S)-1-(4-(4-methylthiazol-5-yl)phenyl)ethyl)pyrrolidine-2-carboxamide] was tested. Which DC50 (BromoTag-Brd2; 6 h) did it give?
Answer: ~1000 nM

Question: What about the “Dmax, BromoTag-Brd2” value (BromoTag-Brd2; 6 h) of the same compound?
Answer: < 70%

Question: What about the pDC50 (BromoTag-Brd2; Ab: Brd2, 6 h) of the same compound?
Answer: 5.7 ± 1.8

Question: What about the “Dmax (%)” value (BromoTag-Brd2; [2]) of the same compound?
Answer: 51%

Question: What about the pDC50 (BromoTag-Brd2; Ab: Brd4^BD2 L387A, 6 h) of the same compound?
Answer: 6.1 ± 0.3

Question: And the “Dmax (%)” value (BromoTag-Brd2; [3])?
Answer: 69%

Question: And the hook effect (BromoTag-Brd2; 6 h)?
Answer: strong hook effect

Question: Which “off-target degradation of untagged Brd2 or the other endogenous BET proteins” value [1] does the source give for `CC[C@@H](C(=O)NCCOCCOCCOCC(=O)N[C@H](C(=O)N1C[C@H](O)C[C@H]1C(=O)NCc1ccc(-c2scnc2C)cc1)C(C)(C)C)[C@@H]1N=C(c2ccc(Cl)cc2)c2c(sc(C)c2C)-n2c(C)nnc21` (relative stereo) [ET-MZ1 (19), (2S,4R)-1-((2S,17R*)-(tert-butyl)-17-((S*)-4-(4-chlorophenyl)-2,3,9-trimethyl-6H-thieno[3,2-f][1,2,4]triazolo[4,3-a][1,4]diazepin-6-yl)-4,16-dioxo-6,9,12-trioxa-3,15-diazanonadecanoyl)-4-hydroxy-N-(4-(4-methylthiazol-5-yl)benzyl)pyrrolidine-2-carboxamide] here?
Answer: no observable off-target degradation

Question: With `CC[C@@H](C(=O)OCCOCCOCCOCC(=O)N[C@H](C(=O)N1C[C@H](O)C[C@H]1C(=O)NCc1ccc(-c2scnc2C)cc1)C(C)(C)C)[C@@H]1N=C(c2ccc(Cl)cc2)c2c(sc(C)c2C)-n2c(C)nnc21` (relative stereo) [ET-OMZ1 (23), (S)-13-((2S,4R)-4-hydroxy-2-((4-(4-methylthiazol-5-yl)benzyl)carbamoyl)pyrrolidine-1-carbonyl)-14,14-dimethyl-11-oxo-3,6,9-trioxa-12-azapentadecyl (R*)-2-((S*)-4-(4-chlorophenyl)-2,3,9-trimethyl-6H-thieno[3,2-f][1,2,4]triazolo[4,3-a][1,4]diazepin-6-yl)butanoate] as the compound, how does the DC50 (BromoTag-Brd2; [4]) read?
Answer: 13 to 80 nM

Question: What about the pDC50 (BromoTag-Brd2; Ab: Brd2, 6 h) of the same compound?
Answer: 7.9 ± 0.2

Question: And the pDC50 (BromoTag-Brd2; Ab: Brd4^BD2 L387A, 6 h)?
Answer: 7.1

Question: What about the Dmax (BromoTag-Brd2; HEK293, Ab: Brd4^BD2 L387A, second-generation B&H-PROTACs, 6 h) of the same compound?
Answer: 90%

Question: And the Dmax (BromoTag-Brd2; HEK293, read-out: Dmax, BromoTag-Brd2, 6 h)?
Answer: > 75%

Question: What about the hook effect (BromoTag-Brd2; 6 h) of the same compound?
Answer: strong onset of the hook effect

Question: What about the “off-target degradation of untagged Brd2 or the other endogenous BET proteins” value [1] of the same compound?
Answer: no observable off-target degradation

Question: Which results are given for `Cc1ncsc1-c1ccc([C@H](C)NC(=O)[C@@H]2C[C@@H](O)CN2C(=O)[C@@H](NC(=O)COCCCOCCNC(=O)[C@H](C)[C@@H]2N=C(c3ccc(Cl)cc3)c3c(sc(C)c3C)-n3c(C)nnc32)C(C)(C)C)cc1` (relative stereo) [ME-ARV-771 (20), (2S,4R)-1-((2S,15R*)-(tert-butyl)-15-((S*)-4-(4-chlorophenyl)-2,3,9-trimethyl-6H-thieno[3,2-f][1,2,4]triazolo[4,3-a][1,4]diazepin-6-yl)-4,14-dioxo-6,10-dioxa-3,13-diazahexadecanoyl)-4-hydroxy-N—((S)-1-(4-(4-methylthiazol-5-yl)phenyl)ethyl)pyrrolidine-2-carboxamide]?
Answer: DC50 (BromoTag-Brd2; [4]): 320 to 400 nM; pDC50 (BromoTag-Brd2; Ab: Brd2, 6 h): 6.4 ± 0.6; Dmax (%) (BromoTag-Brd2; [2]): 60%; pDC50 (BromoTag-Brd2; Ab: Brd4^BD2 L387A, 6 h): 6.5 ± 0.4; Dmax (%) (BromoTag-Brd2; [3]): 70%
